Experimental data taken from the NIST ThermoML archive (doi:10.1016/j.jct.2010.09.009).
Numbers after ± are expanded uncertainties.

Assay: xn = mol fraction of the nth substance listed
Settings: 101 kPa, Liquid, Vibrating tube method, x2 = 0

Structure (SMILES): O [water] + CCC[N+](CCC)(CCC)CCC.[Br-]
- mass density (278.15 K): 999.97 ± 0.05 kg/m3
- mass density (283.15 K): 999.7 ± 0.05 kg/m3
